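48-hour exposure; five concentrations; linearly interpolated endpoints. At the GI50, growth is halved. Definition used: TGI = concentration required for complete inhibition of growth.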
The compounds below were run on MOLT-4 leukemia (assay: inhibition of tumour cell growth, NCI panel, 48 h).
In the case of CC1=C(C(=O)Nc2c(C)cccc2C)C(c2ccccc2Cl)C(C(=O)Nc2c(C)cccc2C)=C(C)N1, the TGI is reported as > 100 µM.
For N#CC(NNC(=O)Cc1ccccc1)c1ccccc1O (centres undefined), the TGI was > 100 µM.
Compound COc1c(C)c2c(c(C)c1Cl)Oc1c(C=O)c(O)c(Cl)c(C)c1C(=O)O2 has a TGI of 65.2 µM.

Each compound was assayed on NCI-H226 lung (assay: inhibition of tumour cell growth, NCI panel, 48 h).
With Cc1cn(C2CC(N(O)Cc3ccccc3)C(CO)O2)c(=O)[nH]c1=O (centres undefined) the TGI was > 100 µM.
In the case of NC1CCCC[C@H]1N.N[C@@H]1CCCC[C@@H]1N.O=C(P(=O)([O-])[O-])P(=O)([O-])[O-].[Pt+4].[Pt+4], the GI50 is reported as > 100 µM and the TGI is reported as > 100 µM.
For CC1=C(C(=O)Nc2c(C)cccc2C)C(c2ccccc2Cl)C(C(=O)Nc2c(C)cccc2C)=C(C)N1, the TGI was > 100 µM.
In the case of N#CC(NNC(=O)Cc1ccccc1)c1ccccc1O (centres undefined), the TGI is reported as 68 µM.
Compound COc1c(C)c2c(c(C)c1Cl)Oc1c(C=O)c(O)c(Cl)c(C)c1C(=O)O2 has a TGI of 94.6 µM.

What follows are compounds tested on NCI-H23 lung (assay: inhibition of tumour cell growth, NCI panel, 48 h).
In the case of Cc1cn(C2CC(N(O)Cc3ccccc3)C(CO)O2)c(=O)[nH]c1=O (centres undefined), the TGI is reported as > 100 µM.
With O=c1[nH]cc(COCC(F)(F)C(F)(F)C(F)(F)C(F)F)c(=O)[nH]1 the TGI was > 100 µM.
For NC1CCCC[C@H]1N.N[C@@H]1CCCC[C@@H]1N.O=C(P(=O)([O-])[O-])P(=O)([O-])[O-].[Pt+4].[Pt+4], the GI50 was > 100 µM and the TGI was > 100 µM.
For CC1=C(C(=O)Nc2c(C)cccc2C)C(c2ccccc2Cl)C(C(=O)Nc2c(C)cccc2C)=C(C)N1, the TGI was > 100 µM.
Compound N#CC(NNC(=O)Cc1ccccc1)c1ccccc1O (centres undefined) has a TGI of 76.4 µM.
COc1c(C)c2c(c(C)c1Cl)Oc1c(C=O)c(O)c(Cl)c(C)c1C(=O)O2 gave a TGI of 45.2 µM.

These compounds were tested on NCI-H460 lung (assay: inhibition of tumour cell growth, NCI panel, 48 h).
With Cc1cn(C2CC(N(O)Cc3ccccc3)C(CO)O2)c(=O)[nH]c1=O (centres undefined) the TGI was > 100 µM.
With NC1CCCC[C@H]1N.N[C@@H]1CCCC[C@@H]1N.O=C(P(=O)([O-])[O-])P(=O)([O-])[O-].[Pt+4].[Pt+4] the GI50 was 20 µM and the TGI was > 100 µM.
With CC1=C(C(=O)Nc2c(C)cccc2C)C(c2ccccc2Cl)C(C(=O)Nc2c(C)cccc2C)=C(C)N1 the TGI was > 100 µM.
For N#CC(NNC(=O)Cc1ccccc1)c1ccccc1O (centres undefined), the TGI was > 100 µM.
With COc1c(C)c2c(c(C)c1Cl)Oc1c(C=O)c(O)c(Cl)c(C)c1C(=O)O2 the TGI was > 100 µM.

These compounds were tested on NCI-H522 lung (assay: inhibition of tumour cell growth, NCI panel, 48 h).
For O=c1[nH]cc(COCC(F)(F)C(F)(F)C(F)(F)C(F)F)c(=O)[nH]1, the TGI was > 100 µM.
For NC1CCCC[C@H]1N.N[C@@H]1CCCC[C@@H]1N.O=C(P(=O)([O-])[O-])P(=O)([O-])[O-].[Pt+4].[Pt+4], the GI50 was 11.9 µM and the TGI was 47.4 µM.
For CC1=C(C(=O)Nc2c(C)cccc2C)C(c2ccccc2Cl)C(C(=O)Nc2c(C)cccc2C)=C(C)N1, the TGI was > 100 µM.
In the case of N#CC(NNC(=O)Cc1ccccc1)c1ccccc1O (centres undefined), the TGI is reported as > 41.1 µM.
Compound COc1c(C)c2c(c(C)c1Cl)Oc1c(C=O)c(O)c(Cl)c(C)c1C(=O)O2 has a TGI of 96.4 µM.

The compounds below were run on NCI/ADR-RES ovarian (assay: inhibition of tumour cell growth, NCI panel, 48 h).
With N#CC(NNC(=O)Cc1ccccc1)c1ccccc1O (centres undefined) the TGI was > 74.6 µM.

These compounds were tested on OVCAR-3 ovarian (assay: inhibition of tumour cell growth, NCI panel, 48 h).
In the case of Cc1cn(C2CC(N(O)Cc3ccccc3)C(CO)O2)c(=O)[nH]c1=O (centres undefined), the TGI is reported as > 100 µM.
In the case of O=c1[nH]cc(COCC(F)(F)C(F)(F)C(F)(F)C(F)F)c(=O)[nH]1, the TGI is reported as > 100 µM.
With NC1CCCC[C@H]1N.N[C@@H]1CCCC[C@@H]1N.O=C(P(=O)([O-])[O-])P(=O)([O-])[O-].[Pt+4].[Pt+4] the GI50 was > 100 µM and the TGI was > 100 µM.
In the case of CC1=C(C(=O)Nc2c(C)cccc2C)C(c2ccccc2Cl)C(C(=O)Nc2c(C)cccc2C)=C(C)N1, the TGI is reported as > 100 µM.
For N#CC(NNC(=O)Cc1ccccc1)c1ccccc1O (centres undefined), the TGI was > 43.6 µM.
COc1c(C)c2c(c(C)c1Cl)Oc1c(C=O)c(O)c(Cl)c(C)c1C(=O)O2 was tested, and the TGI was 30.8 µM.

The compounds below were run on OVCAR-4 ovarian (assay: inhibition of tumour cell growth, NCI panel, 48 h).
For Cc1cn(C2CC(N(O)Cc3ccccc3)C(CO)O2)c(=O)[nH]c1=O (centres undefined), the TGI was > 100 µM.
NC1CCCC[C@H]1N.N[C@@H]1CCCC[C@@H]1N.O=C(P(=O)([O-])[O-])P(=O)([O-])[O-].[Pt+4].[Pt+4] was tested, and the GI50 was > 100 µM and the TGI was > 100 µM.
In the case of CC1=C(C(=O)Nc2c(C)cccc2C)C(c2ccccc2Cl)C(C(=O)Nc2c(C)cccc2C)=C(C)N1, the TGI is reported as > 100 µM.
For N#CC(NNC(=O)Cc1ccccc1)c1ccccc1O (centres undefined), the TGI was > 100 µM.

Each compound was assayed on OVCAR-5 ovarian (assay: inhibition of tumour cell growth, NCI panel, 48 h).
With Cc1cn(C2CC(N(O)Cc3ccccc3)C(CO)O2)c(=O)[nH]c1=O (centres undefined) the TGI was > 100 µM.
O=c1[nH]cc(COCC(F)(F)C(F)(F)C(F)(F)C(F)F)c(=O)[nH]1 was tested, and the TGI was > 100 µM.
For NC1CCCC[C@H]1N.N[C@@H]1CCCC[C@@H]1N.O=C(P(=O)([O-])[O-])P(=O)([O-])[O-].[Pt+4].[Pt+4], the GI50 was > 100 µM and the TGI was > 100 µM.
CC1=C(C(=O)Nc2c(C)cccc2C)C(c2ccccc2Cl)C(C(=O)Nc2c(C)cccc2C)=C(C)N1 was tested, and the TGI was > 100 µM.
N#CC(NNC(=O)Cc1ccccc1)c1ccccc1O (centres undefined) was tested, and the TGI was > 90.9 µM.
COc1c(C)c2c(c(C)c1Cl)Oc1c(C=O)c(O)c(Cl)c(C)c1C(=O)O2 showed a TGI of 78.8 µM.

Each compound was assayed on OVCAR-8 ovarian (assay: inhibition of tumour cell growth, NCI panel, 48 h).
In the case of Cc1cn(C2CC(N(O)Cc3ccccc3)C(CO)O2)c(=O)[nH]c1=O (centres undefined), the TGI is reported as > 100 µM.
With O=c1[nH]cc(COCC(F)(F)C(F)(F)C(F)(F)C(F)F)c(=O)[nH]1 the TGI was > 100 µM.
NC1CCCC[C@H]1N.N[C@@H]1CCCC[C@@H]1N.O=C(P(=O)([O-])[O-])P(=O)([O-])[O-].[Pt+4].[Pt+4] was tested, and the GI50 was > 100 µM and the TGI was > 100 µM.
With CC1=C(C(=O)Nc2c(C)cccc2C)C(c2ccccc2Cl)C(C(=O)Nc2c(C)cccc2C)=C(C)N1 the TGI was > 100 µM.
N#CC(NNC(=O)Cc1ccccc1)c1ccccc1O (centres undefined) was tested, and the TGI was 99.2 µM.
With COc1c(C)c2c(c(C)c1Cl)Oc1c(C=O)c(O)c(Cl)c(C)c1C(=O)O2 the TGI was > 100 µM.

What follows are compounds tested on PC-3 prostate (assay: inhibition of tumour cell growth, NCI panel, 48 h).
For N#CC(NNC(=O)Cc1ccccc1)c1ccccc1O (centres undefined), the TGI was > 100 µM.

What follows are compounds tested on RPMI-8226 leukemia (assay: inhibition of tumour cell growth, NCI panel, 48 h).
Cc1cn(C2CC(N(O)Cc3ccccc3)C(CO)O2)c(=O)[nH]c1=O (centres undefined) was tested, and the TGI was > 100 µM.
For O=c1[nH]cc(COCC(F)(F)C(F)(F)C(F)(F)C(F)F)c(=O)[nH]1, the TGI was > 100 µM.
With NC1CCCC[C@H]1N.N[C@@H]1CCCC[C@@H]1N.O=C(P(=O)([O-])[O-])P(=O)([O-])[O-].[Pt+4].[Pt+4] the GI50 was 31.1 µM and the TGI was > 100 µM.
For CC1=C(C(=O)Nc2c(C)cccc2C)C(c2ccccc2Cl)C(C(=O)Nc2c(C)cccc2C)=C(C)N1, the TGI was > 100 µM.
With N#CC(NNC(=O)Cc1ccccc1)c1ccccc1O (centres undefined) the TGI was > 100 µM.
With COc1c(C)c2c(c(C)c1Cl)Oc1c(C=O)c(O)c(Cl)c(C)c1C(=O)O2 the TGI was > 100 µM.

Each compound was assayed on RXF 393 renal (assay: inhibition of tumour cell growth, NCI panel, 48 h).
For Cc1cn(C2CC(N(O)Cc3ccccc3)C(CO)O2)c(=O)[nH]c1=O (centres undefined), the TGI was > 100 µM.
With O=c1[nH]cc(COCC(F)(F)C(F)(F)C(F)(F)C(F)F)c(=O)[nH]1 the TGI was > 100 µM.
NC1CCCC[C@H]1N.N[C@@H]1CCCC[C@@H]1N.O=C(P(=O)([O-])[O-])P(=O)([O-])[O-].[Pt+4].[Pt+4] was tested, and the GI50 was > 100 µM and the TGI was > 100 µM.
For CC1=C(C(=O)Nc2c(C)cccc2C)C(c2ccccc2Cl)C(C(=O)Nc2c(C)cccc2C)=C(C)N1, the TGI was > 100 µM.
For N#CC(NNC(=O)Cc1ccccc1)c1ccccc1O (centres undefined), the TGI was > 100 µM.

These compounds were tested on SF-268 CNS (assay: inhibition of tumour cell growth, NCI panel, 48 h).
For Cc1cn(C2CC(N(O)Cc3ccccc3)C(CO)O2)c(=O)[nH]c1=O (centres undefined), the TGI was > 100 µM.
For O=c1[nH]cc(COCC(F)(F)C(F)(F)C(F)(F)C(F)F)c(=O)[nH]1, the TGI was > 100 µM.
With NC1CCCC[C@H]1N.N[C@@H]1CCCC[C@@H]1N.O=C(P(=O)([O-])[O-])P(=O)([O-])[O-].[Pt+4].[Pt+4] the GI50 was > 100 µM and the TGI was > 100 µM.
With CC1=C(C(=O)Nc2c(C)cccc2C)C(c2ccccc2Cl)C(C(=O)Nc2c(C)cccc2C)=C(C)N1 the TGI was > 100 µM.
With N#CC(NNC(=O)Cc1ccccc1)c1ccccc1O (centres undefined) the TGI was 98.7 µM.
For COc1c(C)c2c(c(C)c1Cl)Oc1c(C=O)c(O)c(Cl)c(C)c1C(=O)O2, the TGI was > 100 µM.

Each compound was assayed on SF-295 CNS (assay: inhibition of tumour cell growth, NCI panel, 48 h).
For Cc1cn(C2CC(N(O)Cc3ccccc3)C(CO)O2)c(=O)[nH]c1=O (centres undefined), the TGI was > 100 µM.
O=c1[nH]cc(COCC(F)(F)C(F)(F)C(F)(F)C(F)F)c(=O)[nH]1 was tested, and the TGI was > 100 µM.
In the case of NC1CCCC[C@H]1N.N[C@@H]1CCCC[C@@H]1N.O=C(P(=O)([O-])[O-])P(=O)([O-])[O-].[Pt+4].[Pt+4], the GI50 is reported as 96.7 µM and the TGI is reported as > 100 µM.
For CC1=C(C(=O)Nc2c(C)cccc2C)C(c2ccccc2Cl)C(C(=O)Nc2c(C)cccc2C)=C(C)N1, the TGI was > 100 µM.
With N#CC(NNC(=O)Cc1ccccc1)c1ccccc1O (centres undefined) the TGI was > 100 µM.
COc1c(C)c2c(c(C)c1Cl)Oc1c(C=O)c(O)c(Cl)c(C)c1C(=O)O2 was tested, and the TGI was > 100 µM.

These compounds were tested on SF-539 CNS (assay: inhibition of tumour cell growth, NCI panel, 48 h).
In the case of Cc1cn(C2CC(N(O)Cc3ccccc3)C(CO)O2)c(=O)[nH]c1=O (centres undefined), the TGI is reported as > 100 µM.
NC1CCCC[C@H]1N.N[C@@H]1CCCC[C@@H]1N.O=C(P(=O)([O-])[O-])P(=O)([O-])[O-].[Pt+4].[Pt+4] was tested, and the GI50 was > 100 µM and the TGI was > 100 µM.
CC1=C(C(=O)Nc2c(C)cccc2C)C(c2ccccc2Cl)C(C(=O)Nc2c(C)cccc2C)=C(C)N1 was tested, and the TGI was > 100 µM.
For N#CC(NNC(=O)Cc1ccccc1)c1ccccc1O (centres undefined), the TGI was 85.1 µM.
Work on COc1c(C)c2c(c(C)c1Cl)Oc1c(C=O)c(O)c(Cl)c(C)c1C(=O)O2 yielded a TGI of 39.7 µM.

What follows are compounds tested on SK-MEL-2 melanoma (assay: inhibition of tumour cell growth, NCI panel, 48 h).
O=c1[nH]cc(COCC(F)(F)C(F)(F)C(F)(F)C(F)F)c(=O)[nH]1 was tested, and the TGI was > 100 µM.
NC1CCCC[C@H]1N.N[C@@H]1CCCC[C@@H]1N.O=C(P(=O)([O-])[O-])P(=O)([O-])[O-].[Pt+4].[Pt+4] was tested, and the GI50 was > 100 µM and the TGI was > 100 µM.
In the case of CC1=C(C(=O)Nc2c(C)cccc2C)C(c2ccccc2Cl)C(C(=O)Nc2c(C)cccc2C)=C(C)N1, the TGI is reported as > 100 µM.
N#CC(NNC(=O)Cc1ccccc1)c1ccccc1O (centres undefined) was tested, and the TGI was > 100 µM.

— PubChem BioAssay (NCI)
